Legend:
[1] = Cell viability (MTT assay) in HaCaT; type: cell-based, Human; settings: human, HaCaT keratinocytes, HaCaT, 1% FBS
Protocol: (§1) Cell Lines/Cells: Human Keratinocytes (HaCaT); Human melanoma (SK-MEL-28); Human PBMCs. Test Item: IS181 Treatment regimen: Single addition—24 h, ^#Multiple additions (3)−72 h; Concentration range: 1 ng/ml-2 mg/ml (triplicate wells); Sera Condition: […] Method of estimation: MTT assay. […] Positive control: Triton-X-100, Doxorubicin Hydrochloride.

[2] = test system: Human Keratinocytes (HaCaT); assay: Cell viability (MTT assay) in HaCaT; type: cell-based; settings: for IC50 value / cytotoxicity: HaCaT
Protocol: as §1

Caspase-3 enzyme = assay: Caspase-3 assay; type: cell-based, Human; settings: HaCaT, 48 h
Protocol: Cell lines: Human Keratinocytes (HaCaT); Test Item (TI): IS 181; Treatment regimen: Multiple additions (2)—48 hours; Concentration range: 100 μg/ml to 5000 μg/ml (Duplicate wells); Sera Condition: Medium containing 1% FBS. […] Cells were lysed and protein was estimated. The above lysates were processed further for Caspase-3 enzyme activity assay using colorimetric based method. Percentage induction of Caspase-3 enzyme activation with respect to untreated; Positive control: Anthralin. IS 181 led to induction of Caspase-3 enzyme activation in HaCaT cells at all the concentrations tested except at 100 μg/ml. […] (FIGS. 7A-7B)

[3] = test system: Human Keratinocytes (HaCaT); assay: DNA fragmentation assay in HaCaT; type: cell-based; settings: 48 h
Protocol: Cells were lysed and fragmented DNA was precipitated using PEG/NaCl solution. The fragmented DNA was incubated with 0.2 μg/ml of Hoechst 33258 dye and fluorescence was read at 360 ex/460 em. End point: Percentage induction of DNA fragmentation with respect to untreated Positive control. Anthralin. IS 181 led to induction of DNA fragmentation in HaCaT cells at all the concentrations tested except at 100 μg/ml. […] The overall effect of IS 181 on induction of DNA fragmentation with respect to untreated in HaCaT cells ranged from −18.8% to 83.3%. (FIG. 8 and Table-6).

[4] = test system: Human endothelial cells (EA.hy 926); assay: Tube formation in endothelial cells; type: cell-based; parameters: endothelial morphogenesis on matrigel: dose or concentration left out as unconfirmed; settings: Ea.hy.926, 8 hours
Protocol: Cell lines: Human endothelial cells (EA.Hy 926); test item: IS 181; treatment regimen; multiple additions (2)—48 hours; concentration range: 100 6 g/ml to 5000 6 g/ml (Duplicate wells); sera condition: medium containing 1% FBS. Non-cytotoxic concentrations of IS 181 were determined using MTT assay. EA.hy926 cells were plated on ECMatrix solution. Cells were treated with IS 181 for 8 hours. Endothelial tubes were visualized under inverted light microscope at 40× magnification and images were captured. End point: visual pattern recognition and scoring of photomicrographs (FIGS. 11A-11G) based on Table-11 below: […]

IL-6 = assay: LPS+PMA stimulated IL-6 secretion in HaCaT; type: cell-based, Human; settings: 24 h
Protocol: Effect on pro-inflammatory cytokines against TNF-α/LPS+PMA stimulation: TNF-α; IFN-γ; TARC; TSLP; IL-6; IL-8: Cell lines: Human keratinocytes (HaCaT); test item (TI); IS181; experimental steps: pre-treatment of cells with TI for 2 hours; stimulation with TNF-α: 20 ng/ml; stimulation with LPS+PMA-10 μg/ml LPS+40 ng/ml PMA; supernatant collection for cytokine analysis after 24 hours; concentration range: 0.1 μg/ml-100 μg/ml (duplicate wells); cytokines: TNF-α; IFN-γ; TARC; TSLP; IL-6; IL-8. Method of estimating cytokines: ELISA; positive control: dexamethasone.
Cell line: HaCaT (Human Keratinocytes); TI Treatment regimen: Pretreatment for 2 h; TI Concentration range: 0.1 μg/ml-100 μg/ml (duplicate wells); TNF-α stimulation: 20 ng/ml; LPS+PMA stimulation: 10 μg/ml LPS+40 ng/ml PMA; Time point for supernatants collection: 24 h; Method of estimation: ELISA; Positive control: Dexamethasone

[5] = Solution stability in diluents; type: physicochemical; settings: 24 hours
Protocol: (§2) The solution stability of peptide IS 181 was performed in four different diluents at three different temperatures for 24 hours. Four different pre-formulations of concentration 10 mg/ml were prepared and formulation assay was performed at initial and […] at room temperature.

[6] = Maximum feasible concentration and formulation stability; type: physicochemical
Protocol: as §2

[7] = 10% v/v Propylene glycol in 0.9% NaCl (for IM& SC)

- Percentage induction of caspase-3 enzyme activation with respect to untreated (Caspase-3 enzyme; 100 μg/ml): −20.37
- Percentage induction of caspase-3 enzyme activation with respect to untreated (Caspase-3 enzyme; 500 μg/ml): 7.41
- Percentage induction of caspase-3 enzyme activation with respect to untreated (Caspase-3 enzyme; 1000 μg/ml): 29.63
- Percentage induction of caspase-3 enzyme activation with respect to untreated (Caspase-3 enzyme; 2000 μg/ml): 50
- % Stability ([5]; 0.9% NaCl solution, 2-8° C.): 93.64%
- % Stability ([5]; 0.9% NaCl solution, 37° C.): 104.94%
- % Stability ([5]; 0.9% NaCl solution, Room Temperature): 101.84%
- % Stability ([5]; Phosphate buffer pH 5.0, 2-8° C.): 96.53%
- % Stability ([5]; Phosphate buffer pH 5.0, 37° C.): 104.05%
- % Stability ([5]; Phosphate buffer pH 5.0, Room Temperature): 102.20%
- % Stability ([5]; Phosphate buffer pH 7.4, 2-8° C.): 97.99%
- % Stability ([5]; Phosphate buffer pH 7.4, 37° C.): 107.22%
- % Stability ([5]; Phosphate buffer pH 7.4, Room Temperature): 102.41%
- % Stability ([5]; Water, 2-8° C.): 94.66%
- % Stability ([5]; Water, 37° C.): 98.57%
- % Stability ([5]; Water, Room Temperature): 93.99%
- MFC ([6]; 0.9% NaCl (for IV)): >25.0 mg/mL
- Stability of formulation at RT ([6]; 0.9% NaCl (for IV)): Up to 24 hrs
- MFC [6, 7]: >25.0 mg/mL
- Stability of formulation at RT [6, 7]: Up to 24 hrs
Substance: H-WVQRVVEKFLK-OH [IS181, H-Trp-Val-Gln-Arg-Val-Val-Glu-Lys-Phe-Leu-Lys-OH]
- cytotoxicity at 24 h, 0.1 μg/ml ([1]; 24 h, 0.1 μg/ml): -1.4%
- cytotoxicity at 24 h, 0.5 μg/ml ([1]; 24 h, 0.5 μg/ml): -4.61%
- cytotoxicity at 24 h, 1 μg/ml ([1]; 24 h, 1 μg/ml): 4.88%
- cytotoxicity at 24 h, 5 μg/ml ([1]; 24 h, 5 μg/ml): 8.43%
- cytotoxicity at 24 h, 10 μg/ml ([1]; 24 h, 10 μg/ml): 5.75%
- cytotoxicity at 24 h, 50 μg/ml ([1]; 24 h, 50 μg/ml): 1.79%
- cytotoxicity at 24 h, 100 μg/ml ([1]; 24 h, 100 μg/ml): -0.58%
- cytotoxicity at 24 h, 500 μg/ml ([1]; 24 h, 500 μg/ml): 18.9%
- cytotoxicity at 24 h, 1000 μg/ml ([1]; 24 h, 1000 μg/ml): 87.8%
- cytotoxicity at 24 h, 2000 μg/ml ([1]; 24 h, 2000 μg/ml): 91.3%
- cytotoxicity at 72 h, 0.1 μg/ml ([1]; 72 h, 0.1 μg/ml): -56.2%
- cytotoxicity at 72 h, 0.5 μg/ml ([1]; 72 h, 0.5 μg/ml): -75.4%
- cytotoxicity at 72 h, 1 μg/ml ([1]; 72 h, 1 μg/ml): -66.1%
- cytotoxicity at 72 h, 5 μg/ml ([1]; 72 h, 5 μg/ml): -37.5%
- cytotoxicity at 72 h, 10 μg/ml ([1]; 72 h, 10 μg/ml): -44.5%
- cytotoxicity at 72 h, 50 μg/ml ([1]; 72 h, 50 μg/ml): -33%
- cytotoxicity at 72 h, 100 μg/ml ([1]; 72 h, 100 μg/ml): -42.5%
- cytotoxicity at 72 h, 500 μg/ml ([1]; 72 h, 500 μg/ml): 58.5%
- cytotoxicity at 72 h, 1000 μg/ml ([1]; 72 h, 1000 μg/ml): 91%
- cytotoxicity at 72 h, 2000 μg/ml ([1]; 72 h, 2000 μg/ml): 89.4%
- IC50 ([2]; 24 h): 470 µM
- Selectivity Index -IC50 (PBMC)/IC50 (HaCaT/SK-MEL-28 cells) ([2]; 24 h): 3
- selectivity of cytotoxic activity against human keratinocytes ([2]; 24 h): selective cytotoxic activity
- IC50 ([2]; 72 h): 290 µM
- Selectivity Index -IC50 (PBMC)/IC50 (HaCaT/SK-MEL-28 cells) ([2]; 72 h): 2
- IC50 value ([2]; 24 h): 0.67 mg/mL
- cytotoxicity ([2]; 24 h, at concentrations 2 mg/ml): 87%-91%
- IC50 value ([2]; 72 h): 0.42 mg/mL
- cytotoxicity ([2]; 72 h, concentrations ≥0.5 mg/ml): 58%-90%
- % induction of DNA fragmentation ([3]; 100 μg/ml): −18.8%
- overall effect on induction of DNA fragmentation with respect to untreated ([3]; 100 μg/ml to 5000 μg/ml): −18.8% to 83.3%
- % induction of DNA fragmentation ([3]; 500 μg/ml): 35.4%
- % induction of DNA fragmentation ([3]; 1000 μg/ml): 35.4%
- % induction of DNA fragmentation ([3]; 2000 μg/ml): 27.1%
- % induction of DNA fragmentation ([3]; 5000 μg/ml): 83.3%
- endothelial morphogenesis on matrigel [4]: Complete inhibition
- endothelial tube formation ([4]; 1 6 g/ml to 1000 6 g/m/1): block endothelial tube formation
- IL-6 % decrease with respect to LPS + PMA (IL-6; 0.1 μg/ml): −58.3%
- IL-6 Conc (IL-6; 0.1 μg/ml): 23.7 pg/mL
- IL-6 % decrease with respect to LPS + PMA (IL-6; 1 μg/ml): −78.5%
- IL-6 Conc (IL-6; 1 μg/ml): 26.7 pg/mL
- IL-6 % decrease with respect to LPS + PMA (IL-6; 5 μg/ml): −56.5%
- IL-6 Conc (IL-6; 5 μg/ml): 23.4 pg/mL
- IL-6 % decrease with respect to LPS + PMA (IL-6; 10 μg/ml): −48.0%
- IL-6 Conc (IL-6; 10 μg/ml): 22.1 pg/mL
- IL-6 % decrease with respect to LPS + PMA (IL-6; 100 μg/ml): −160.6%
- IL-6 Conc (IL-6; 100 μg/ml): 39.0 pg/mL

From US10538561B2, “Peptide for treating inflammatory diseases” (priority 2015, dated 2020)
